The numbers were not newly measured in patent US20100111901A1, “TRIAZOLE INHIBITORS OF AROMATASE” (priority 2008, published 2010), which cites them from elsewhere.

For one data set, the target named is CYP2A6 (Homo sapiens, UniProt P11509).
The target of the next data set is CYP2D6 (Homo sapiens, UniProt P10635).
The target in another data set is CYP1A2 (Homo sapiens, UniProt P05177). Conditions: strongest in decreasing order of magnitude.
For data set [1] the following is noted: in vivo.

CYP2A6, sequence (P11509 whole entry): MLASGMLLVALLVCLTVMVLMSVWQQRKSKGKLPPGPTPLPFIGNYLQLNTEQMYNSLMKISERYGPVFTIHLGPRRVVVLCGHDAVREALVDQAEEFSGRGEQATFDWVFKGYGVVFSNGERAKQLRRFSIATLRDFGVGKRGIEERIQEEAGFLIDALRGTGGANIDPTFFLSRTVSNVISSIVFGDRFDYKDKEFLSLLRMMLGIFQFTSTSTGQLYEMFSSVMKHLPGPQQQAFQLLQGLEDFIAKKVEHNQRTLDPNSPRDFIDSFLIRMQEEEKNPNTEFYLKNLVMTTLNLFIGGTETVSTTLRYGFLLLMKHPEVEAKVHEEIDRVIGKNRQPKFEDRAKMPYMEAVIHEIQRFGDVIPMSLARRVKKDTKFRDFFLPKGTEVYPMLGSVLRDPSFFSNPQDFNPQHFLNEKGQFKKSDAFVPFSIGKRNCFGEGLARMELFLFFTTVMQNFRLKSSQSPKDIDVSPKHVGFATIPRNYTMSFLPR
CYP2D6, sequence (P10635 whole entry): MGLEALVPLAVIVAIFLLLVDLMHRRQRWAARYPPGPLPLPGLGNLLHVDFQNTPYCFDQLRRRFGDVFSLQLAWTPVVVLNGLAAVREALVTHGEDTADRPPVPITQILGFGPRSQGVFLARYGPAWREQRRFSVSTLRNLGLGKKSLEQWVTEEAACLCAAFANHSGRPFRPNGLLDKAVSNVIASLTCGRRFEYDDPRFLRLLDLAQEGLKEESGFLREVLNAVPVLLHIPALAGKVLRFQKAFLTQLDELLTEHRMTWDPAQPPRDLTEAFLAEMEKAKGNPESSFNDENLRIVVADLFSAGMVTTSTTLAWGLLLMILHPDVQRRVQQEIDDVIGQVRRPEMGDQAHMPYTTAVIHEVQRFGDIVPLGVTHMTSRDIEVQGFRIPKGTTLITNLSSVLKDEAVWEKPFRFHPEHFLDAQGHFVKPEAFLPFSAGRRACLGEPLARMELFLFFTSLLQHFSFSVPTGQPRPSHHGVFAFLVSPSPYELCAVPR
CYP1A2, sequence (P05177 whole entry): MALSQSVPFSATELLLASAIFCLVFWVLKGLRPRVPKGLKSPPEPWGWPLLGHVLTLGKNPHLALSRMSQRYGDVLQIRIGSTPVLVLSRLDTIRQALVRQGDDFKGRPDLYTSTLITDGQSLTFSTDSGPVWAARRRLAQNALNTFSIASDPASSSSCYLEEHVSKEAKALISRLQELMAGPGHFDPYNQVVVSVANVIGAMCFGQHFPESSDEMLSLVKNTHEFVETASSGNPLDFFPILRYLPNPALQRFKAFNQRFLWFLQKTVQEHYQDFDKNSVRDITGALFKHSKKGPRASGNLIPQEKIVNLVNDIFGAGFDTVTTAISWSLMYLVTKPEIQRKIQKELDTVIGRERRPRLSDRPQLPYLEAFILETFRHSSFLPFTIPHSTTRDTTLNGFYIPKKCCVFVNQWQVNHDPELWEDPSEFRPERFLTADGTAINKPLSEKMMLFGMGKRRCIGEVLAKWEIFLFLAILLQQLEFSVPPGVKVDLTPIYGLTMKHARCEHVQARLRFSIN

As for `CC(C)(C#N)c1cc(Cn2cncn2)cc(C(C)(C)C#N)c1` [Anastrozole, 2-[3-(2-cyano-2-propyl)-5-(1,2,4-triazol-1-ylmethyl)phenyl]-2-methylpropiononitrile], on CYP2A6, the “effect on CYP2A6” value was “no effect”. Also, on CYP2D6, the “effect on CYP2D6” value is “no effect”. Moreover, at CYP1A2, the “inhibition of CYP1A2” value is on record as “inhibits”. Also, the “mean terminal elimination half-life” value in data set [1] was 40 to 50 h.
